Experiment in all cases: Kinase profiling in a biochemical assay panel (mobility shift assays and ELISA), %-inhibition at 1 μM; selectivity entropy
For experiment [1], the target named is T1, panel of more than 300 wild-type and mutant kinases (313 kinase panel) (Homo sapiens, UniProt P29323).
T1 sequence (P29323 19-1055): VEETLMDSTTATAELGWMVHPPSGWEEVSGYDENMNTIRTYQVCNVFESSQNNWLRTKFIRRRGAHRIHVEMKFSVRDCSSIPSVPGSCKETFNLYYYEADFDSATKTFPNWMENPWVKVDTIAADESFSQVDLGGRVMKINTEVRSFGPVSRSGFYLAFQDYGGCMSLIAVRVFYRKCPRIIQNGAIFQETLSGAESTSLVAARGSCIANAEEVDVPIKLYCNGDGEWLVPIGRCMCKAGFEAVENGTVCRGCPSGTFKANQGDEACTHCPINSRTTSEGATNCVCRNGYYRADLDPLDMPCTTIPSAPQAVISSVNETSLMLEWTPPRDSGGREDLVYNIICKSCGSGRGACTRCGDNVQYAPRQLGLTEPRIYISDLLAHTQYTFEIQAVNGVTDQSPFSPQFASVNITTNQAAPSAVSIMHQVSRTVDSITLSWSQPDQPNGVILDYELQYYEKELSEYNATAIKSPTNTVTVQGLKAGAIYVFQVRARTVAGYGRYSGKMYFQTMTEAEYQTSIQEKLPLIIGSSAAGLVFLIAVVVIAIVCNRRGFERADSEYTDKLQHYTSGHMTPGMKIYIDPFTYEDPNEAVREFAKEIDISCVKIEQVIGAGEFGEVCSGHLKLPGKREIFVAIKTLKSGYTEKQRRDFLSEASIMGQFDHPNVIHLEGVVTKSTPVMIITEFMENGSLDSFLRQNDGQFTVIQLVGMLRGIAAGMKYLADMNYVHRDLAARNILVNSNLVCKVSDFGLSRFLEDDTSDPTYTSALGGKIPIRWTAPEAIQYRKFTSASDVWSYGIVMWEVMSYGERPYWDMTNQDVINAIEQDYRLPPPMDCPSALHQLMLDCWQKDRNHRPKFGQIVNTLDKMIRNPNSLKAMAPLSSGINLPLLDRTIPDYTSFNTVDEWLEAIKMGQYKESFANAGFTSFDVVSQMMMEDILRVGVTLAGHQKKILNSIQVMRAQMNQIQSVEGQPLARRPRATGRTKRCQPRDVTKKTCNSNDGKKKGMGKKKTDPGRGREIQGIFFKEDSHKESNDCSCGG
The conditions noted are these: kinase EPHB2; compound at 1 μM.

Experiment [2] has as its target T2, panel of more than 300 wild-type and mutant kinases (313 kinase panel) (Homo sapiens, UniProt Q13188).
T2 sequence (Q13188 1-491): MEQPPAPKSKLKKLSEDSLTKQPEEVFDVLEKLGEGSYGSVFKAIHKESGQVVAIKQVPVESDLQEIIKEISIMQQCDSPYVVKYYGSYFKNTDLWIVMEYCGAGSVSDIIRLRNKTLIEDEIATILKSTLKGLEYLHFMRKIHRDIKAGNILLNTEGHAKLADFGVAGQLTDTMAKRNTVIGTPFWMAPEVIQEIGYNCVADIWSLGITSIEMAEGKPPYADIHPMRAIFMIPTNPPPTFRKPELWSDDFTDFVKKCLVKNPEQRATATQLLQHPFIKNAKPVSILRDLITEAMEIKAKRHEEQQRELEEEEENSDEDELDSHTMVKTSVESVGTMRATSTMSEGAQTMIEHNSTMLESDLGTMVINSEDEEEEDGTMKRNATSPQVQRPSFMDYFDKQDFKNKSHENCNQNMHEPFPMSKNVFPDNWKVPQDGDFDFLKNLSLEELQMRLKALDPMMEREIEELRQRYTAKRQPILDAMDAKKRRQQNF
The conditions noted are these: kinase MST2; 1 μM.

Experiment [3] addresses panel of more than 300 wild-type and mutant kinases (313 kinase panel) (Homo sapiens, UniProt Q96SB4). The conditions noted are these: kinase SRPK1; 1 μM.
The target of experiment [4] is panel of more than 300 wild-type and mutant kinases (313 kinase panel) (Homo sapiens, UniProt Q05397). The conditions noted are these: kinase FAK; compound at 1 μM.
Experiment [5] deals with panel of more than 300 wild-type and mutant kinases (313 kinase panel) (Homo sapiens, UniProt Q9P286). The following applies: kinase PAK5; 1 μM.
panel of more than 300 wild-type and mutant kinases (313 kinase panel) (Homo sapiens, UniProt Q9P286), sequence (Q9P286 whole entry, change not shown): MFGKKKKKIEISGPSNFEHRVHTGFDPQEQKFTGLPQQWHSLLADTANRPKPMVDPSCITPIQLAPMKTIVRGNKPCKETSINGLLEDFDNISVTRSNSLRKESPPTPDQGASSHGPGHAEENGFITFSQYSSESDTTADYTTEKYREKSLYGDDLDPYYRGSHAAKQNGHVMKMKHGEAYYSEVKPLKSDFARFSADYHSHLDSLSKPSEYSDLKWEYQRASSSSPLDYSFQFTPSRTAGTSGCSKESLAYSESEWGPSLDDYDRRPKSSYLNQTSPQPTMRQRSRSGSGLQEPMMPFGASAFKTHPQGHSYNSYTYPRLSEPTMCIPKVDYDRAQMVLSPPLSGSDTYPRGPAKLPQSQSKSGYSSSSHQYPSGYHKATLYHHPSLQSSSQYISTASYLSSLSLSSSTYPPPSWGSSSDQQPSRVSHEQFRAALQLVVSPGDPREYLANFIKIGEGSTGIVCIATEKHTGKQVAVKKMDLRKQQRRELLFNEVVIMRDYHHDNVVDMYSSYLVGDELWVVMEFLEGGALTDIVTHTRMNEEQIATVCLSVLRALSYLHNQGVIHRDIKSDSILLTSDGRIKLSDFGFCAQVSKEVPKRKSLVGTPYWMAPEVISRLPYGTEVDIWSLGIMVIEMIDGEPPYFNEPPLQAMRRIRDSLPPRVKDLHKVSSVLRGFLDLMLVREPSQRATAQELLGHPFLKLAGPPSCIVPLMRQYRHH
Experiment [6] addresses panel of more than 300 wild-type and mutant kinases (313 kinase panel) (Homo sapiens, UniProt P31751). The following applies: kinase AKT2; 1 μM compound.
Experiment [7] concerns the target T3, panel of more than 300 wild-type and mutant kinases (313 kinase panel) (Homo sapiens, UniProt Q13237).
T3 sequence (Q13237 1-762): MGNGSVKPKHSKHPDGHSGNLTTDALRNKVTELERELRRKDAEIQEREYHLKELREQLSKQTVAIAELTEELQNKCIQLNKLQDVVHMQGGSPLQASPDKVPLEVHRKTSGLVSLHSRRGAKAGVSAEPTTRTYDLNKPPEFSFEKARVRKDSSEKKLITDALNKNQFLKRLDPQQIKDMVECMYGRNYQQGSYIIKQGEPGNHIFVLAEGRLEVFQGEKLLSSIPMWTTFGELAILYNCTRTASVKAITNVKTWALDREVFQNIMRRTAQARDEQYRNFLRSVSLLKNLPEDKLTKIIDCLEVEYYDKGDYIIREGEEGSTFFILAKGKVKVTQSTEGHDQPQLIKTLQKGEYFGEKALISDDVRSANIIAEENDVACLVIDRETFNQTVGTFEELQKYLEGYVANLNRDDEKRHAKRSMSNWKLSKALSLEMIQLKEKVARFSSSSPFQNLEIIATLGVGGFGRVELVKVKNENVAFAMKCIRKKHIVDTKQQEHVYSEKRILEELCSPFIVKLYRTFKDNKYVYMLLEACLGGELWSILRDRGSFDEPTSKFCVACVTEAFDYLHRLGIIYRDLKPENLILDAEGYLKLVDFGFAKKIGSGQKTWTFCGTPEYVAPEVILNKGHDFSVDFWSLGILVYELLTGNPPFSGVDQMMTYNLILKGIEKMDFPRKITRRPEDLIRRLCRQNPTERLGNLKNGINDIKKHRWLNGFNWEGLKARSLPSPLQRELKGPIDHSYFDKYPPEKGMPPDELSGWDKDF
The following applies: kinase CGK2; 1 μM compound.

The structures appear in SMILES notation.

panel of more than 300 wild-type and mutant kinases (313 kinase panel) (Homo sapiens, UniProt P31751), sequence (P31751 whole entry, change not shown): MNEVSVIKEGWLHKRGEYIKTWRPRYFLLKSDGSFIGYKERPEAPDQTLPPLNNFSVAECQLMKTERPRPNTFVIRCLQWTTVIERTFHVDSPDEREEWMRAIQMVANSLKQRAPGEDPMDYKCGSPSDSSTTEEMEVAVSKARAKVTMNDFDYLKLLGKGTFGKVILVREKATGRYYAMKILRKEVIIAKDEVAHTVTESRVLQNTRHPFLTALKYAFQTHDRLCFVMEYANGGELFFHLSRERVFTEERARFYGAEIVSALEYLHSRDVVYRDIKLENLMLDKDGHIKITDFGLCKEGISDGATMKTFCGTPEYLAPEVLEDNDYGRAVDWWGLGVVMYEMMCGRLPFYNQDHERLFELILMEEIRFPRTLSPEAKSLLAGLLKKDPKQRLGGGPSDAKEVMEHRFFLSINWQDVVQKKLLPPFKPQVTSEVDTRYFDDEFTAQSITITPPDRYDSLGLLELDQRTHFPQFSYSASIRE
panel of more than 300 wild-type and mutant kinases (313 kinase panel) (Homo sapiens, UniProt Q96SB4), sequence (Q96SB4 whole entry, change not shown): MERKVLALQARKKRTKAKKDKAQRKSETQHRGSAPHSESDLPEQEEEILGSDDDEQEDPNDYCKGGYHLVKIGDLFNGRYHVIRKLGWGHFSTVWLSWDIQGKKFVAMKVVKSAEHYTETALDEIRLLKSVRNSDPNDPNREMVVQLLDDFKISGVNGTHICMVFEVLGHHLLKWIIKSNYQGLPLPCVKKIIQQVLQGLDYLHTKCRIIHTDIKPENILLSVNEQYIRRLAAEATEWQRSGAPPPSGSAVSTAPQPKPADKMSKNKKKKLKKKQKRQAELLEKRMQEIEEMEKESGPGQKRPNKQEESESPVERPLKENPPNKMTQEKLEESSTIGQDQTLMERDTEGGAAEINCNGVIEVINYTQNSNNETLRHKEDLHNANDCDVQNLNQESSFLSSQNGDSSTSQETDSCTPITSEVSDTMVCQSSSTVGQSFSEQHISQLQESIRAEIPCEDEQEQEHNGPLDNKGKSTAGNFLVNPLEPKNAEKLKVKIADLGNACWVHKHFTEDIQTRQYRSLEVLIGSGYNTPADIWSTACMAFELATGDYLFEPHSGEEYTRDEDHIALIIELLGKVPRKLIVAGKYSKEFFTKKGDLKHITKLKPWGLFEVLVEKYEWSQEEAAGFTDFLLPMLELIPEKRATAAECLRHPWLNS

As for `CNC(=O)c1cc(Oc2ccc(NC(=O)Nc3ccc(Cl)c(C(F)(F)F)c3)c(F)c2)ccn1` [regorafenib], in experiment [1], the “%-inhibition of EPHB2” value is recorded as 84%. Moreover, the “%-inhibition of MST2” value in experiment [2] is listed as -6.39%. Moreover, the “%-inhibition of SRPK1” value in experiment [3] was 27%. In experiment [4], the “%-inhibition of FAK” value was -1.14%. In addition, the “%-inhibition of PAK5” value in experiment [5] is reported as -8%. The “%-inhibition, AKT2” value in experiment [6] is on record as -4%. For the same compound, the “%-inhibition, CGK2” value in experiment [7] is -1.78%.
Turning to `CO[C@H]1C[C@@H]2CC[C@@H](C)[C@@](O)(O2)C(=O)C(=O)N2CCCC[C@H]2C(=O)O[C@H]([C@H](C)C[C@@H]2CC[C@@H](OC(=O)C(C)(CO)CO)[C@H](OC)C2)CC(=O)[C@H](C)/C=C(\C)[C@@H](O)[C@@H](OC)C(=O)[C@H](C)C[C@H](C)/C=C/C=C/C=C/1C` [temsirolimus], the “%-inhibition of EPHB2” value in experiment [1] was -5.66%. Further, the “%-inhibition of MST2” value in experiment [2] is -3.41%. The “%-inhibition of SRPK1” value in experiment [3] is reported as 6%. Further, the “%-inhibition of FAK” value in experiment [4] is on record as -5.48%. For the same compound, the “%-inhibition of PAK5” value in experiment [5] is -6%. Besides, the “%-inhibition, AKT2” value in experiment [6] is on record as -1.77%. In addition, the “%-inhibition, CGK2” value in experiment [7] was -2.84%.
As for `CC(=O)Nc1cccc(-n2c(=O)n(C3CC3)c(=O)c3c(Nc4ccc(I)cc4F)n(C)c(=O)c(C)c32)c1` [trametinib], the “%-inhibition of EPHB2” value in experiment [1] is listed as -8%. Besides, in experiment [2], the “%-inhibition of MST2” value is -3%. Moreover, the “%-inhibition of SRPK1” value in experiment [3] was -0.0691%. In experiment [4], the “%-inhibition of FAK” value was -2.41%. In addition, the “%-inhibition of PAK5” value in experiment [5] was -2.62%. In experiment [6], the “%-inhibition, AKT2” value was -8%. The “%-inhibition, CGK2” value in experiment [7] is listed as -2.61%.
As for `COc1cc2c(Nc3ccc(Br)cc3F)ncnc2cc1OCC1CCN(C)CC1` [vandetanib], the “%-inhibition of EPHB2” value in experiment [1] is recorded as 96%. Further, the “%-inhibition of MST2” value in experiment [2] was -4%. In addition, the “%-inhibition of SRPK1” value in experiment [3] amounted to 3%. Further, the “%-inhibition of FAK” value in experiment [4] was -2.11%. In addition, in experiment [5], the “%-inhibition of PAK5” value was -3.26%. Further, in experiment [6], the “%-inhibition, AKT2” value is -1.77%. In addition, the “%-inhibition, CGK2” value in experiment [7] is -2.65%.
On to `CCCS(=O)(=O)Nc1ccc(F)c(C(=O)c2c[nH]c3ncc(-c4ccc(Cl)cc4)cc23)c1F` [vemurafenib], for which the “%-inhibition of EPHB2” value in experiment [1] is recorded as -2.11%. In addition, in experiment [2], the “%-inhibition of MST2” value is listed as 24%. In experiment [3], the “%-inhibition of SRPK1” value was 2%. Moreover, the “%-inhibition of FAK” value in experiment [4] is listed as -3.55%. Besides, the “%-inhibition of PAK5” value in experiment [5] is -1.23%. In experiment [6], the “%-inhibition, AKT2” value is listed as -3%. Further, in experiment [7], the “%-inhibition, CGK2” value is reported as -2.26%.

The record behind these values is article PMC3961306, “Comparison of the Cancer Gene Targeting and Biochemical Selectivities of All Targeted Kinase Inhibitors Approved for Clinical Use” (PLoS ONE, 2014).
